Measured values: EP2457900A1, “New pyrazole derivatives having CRTh2 antagonistic behaviour” (Almirall, S.A., priority 2010, dated 2012)

biological target: T1, CRTh2 receptor (Homo sapiens, UniProt Q9Y5Y4); experiment: CRTh2 GTPγS antagonism binding assay; format: biochemical; conditions: membranes from CHO.K1 cells stably overexpressing the CRTh2 receptor; [35S]-GTPγS 0.1 nM; PGD2 at 50 nM (EC80); compound pre-incubated 1 h; read-out: GTPγ Binding
T1 construct: expressed in transfected cells; host or cells: CHO.K1 cells (membranes)
T1 sequence (Q9Y5Y4 1-395): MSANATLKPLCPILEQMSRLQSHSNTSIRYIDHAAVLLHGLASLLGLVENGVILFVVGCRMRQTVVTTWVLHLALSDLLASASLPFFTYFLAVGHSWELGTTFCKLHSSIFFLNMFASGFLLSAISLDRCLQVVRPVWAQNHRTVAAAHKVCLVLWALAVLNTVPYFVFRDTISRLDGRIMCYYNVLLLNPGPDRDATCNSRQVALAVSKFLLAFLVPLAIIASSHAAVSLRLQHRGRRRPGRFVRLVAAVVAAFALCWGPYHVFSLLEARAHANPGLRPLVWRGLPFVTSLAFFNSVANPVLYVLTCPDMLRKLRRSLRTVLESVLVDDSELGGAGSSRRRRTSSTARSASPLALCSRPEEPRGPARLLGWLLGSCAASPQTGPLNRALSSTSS
Procedure: CRTh2 GTPγS antagonism binding assay
The assay is performed using membranes obtained from CHO.K1 cells stably overexpressing the CRTh2 receptor and [^35S]-GTPγS as radioligand. Assay is performed pre-incubating 4-8 µg of membranes per well with the compound to be tested for 1 h, followed by incubation with PGD2 at 50 nM (EC80), 0.1 nM [^35S]-GTPγS in incubation buffer (20 mM HEPES, 10 mM MgCl2, 100 mM NaCl, 10 µM GDP, 10 µg/ml Saponine and 0.2% BSA) for 2 h at room temperature. The reaction is terminated by filtering in GF/C plates pre-treated with 20 mM HEPES, 10 mM MgCl2, 100 mM NaCl and washing 6 times with wash buffer (20 mM NaH2PO4, 20 mM Na2HPO4). After washing, plates are dried and scintillation buffer Optiphase added. The radioactivity retained in the filter is counted using a Microbeta liquid scintillation counter.

Structure (SMILES)	IC50 [nM]
Cc1ccc(NC(=O)Nc2cccc(Cn3nc(C)c(CC(=O)O)c3C)c2)cc1 [Example 4, {3,5-Dimethyl-1-[3-({[(4-methylphenyl)amino]carbonyl}amino)benzyl]-1H-pyrazol-4-yl}acetic acid]	370
Cc1c(CC(=O)O)c(-c2ccc(Cl)cc2)nn1Cc1ccccc1S(=O)(=O)c1ccccc1 [Example 26, {3-(4-Chlorophenyl)-5-methyl-1-[2-(phenylsulfonyl)benzyl]-1H-pyrazol-4-yl}acetic acid]	24
Cc1c(CC(=O)O)c(-c2ccccc2)nn1Cc1ccccc1S(=O)(=O)c1ccccc1 [Example 15, {5-Methyl-3-phenyl-1-[2-(phenylsulfonyl)benzyl]-1H-pyrazol-4-yl}acetic acid]	6.8
Cc1c(CC(=O)O)c(=O)[nH]n1Cc1ccccc1S(=O)(=O)c1ccccc1 [Example 29, {3-Hydroxy-5-methyl-1-[2-(phenylsulfonyl)benzyl]-1H-pyrazol-4-yl}acetic acid]	160
Cc1c(CC(=O)O)c(-c2ccccc2)nn1Cc1ccccc1Cc1ccccc1 [Example 24, [1-(2-Benzylbenzyl)-5-methyl-3-phenyl-1H-pyrazol-4-yl]acetic acid]	105
Cc1nn(Cc2ccccc2S(=O)(=O)c2ccccc2)c(C)c1CC(=O)O [Example 13, {3,5-Dimethyl-1-[2-(phenylsulfonyl)benzyl]-1H-pyrazol-4-yl}acetic acid]	86
Cc1c(CC(=O)O)c(-c2ccc(Cl)cc2)nn1Cc1ccccc1S(=O)(=O)N1CCOCC1 [Example 25, {3-(4-Chlorophenyl)-5-methyl-1-[2-(morpholin-4-ylsulfonyl)benzyl]-1H-pyrazol-4-yl}acetic acid]	94
Cc1c(CC(=O)O)c(-c2ccccc2)nn1Cc1ccccc1S(=O)(=O)N1CCCCC1 [Example 30, {5-Methyl-3-phenyl-1-[2-(piperidin-1-ylsulfonyl)benzyl]-1H-pyrazol-4-yl}acetic acid]	66
Cc1c(CC(=O)O)c(-c2ccccc2)nn1Cc1ccccc1S(=O)(=O)N1CCOCC1 [Example 23, {5-Methyl-1-[2-(morpholin-4-ylsulfonyl)benzyl]-3-phenyl-1H-pyrazol-4-yl}acetic acid]	74
Cc1nn(-c2cccc(NC(=O)[C@@H]3C[C@H]3c3ccccc3)c2)c(C)c1CC(=O)O (relative stereo) [Example 1, {3,5-Dimethyl-1-[3-({[trans-2-phenylcyclopropyl]carbonyl}amino)phenyl]-1H-pyrazol-4-yl}acetic acid]	250
